Measurements reported in US20230295197A1, “STAT5 and STAT6 Degraders and Uses Thereof” (REGENTS OF THE UNIVERSITY OF MICHICAN, priority 2022, published 2023).
Like-named read-outs stand apart in the source and are kept apart here.

Tested on: STAT5
Test: Immunoblotting (Western blot) analysis of STAT5 degradation efficiency of degraders in treated cells
Assay type: cell-based
Method: Evaluation of the degradation efficiency of degraders may be accomplished by immunoblotting analysis. The representative general protocol is the following:
Cells are maintained in the appropriate culture medium with 10% FBS at 37° C. and an atmosphere of 5% CO2. Cell lines are used within three months of thawing fresh vials. Cells are lysed 1× Cell Lysis Buffer (Cell Signaling Technology, #9803), resolved by SDS-PAGE NuPAGE gel (Thermo Fisher Scientific), and transferred to a PVDF membrane (Millipore). Membranes are blocked using Odyssey TBS Blocker Buffer (LI-COR). IRDye 680RD and 800CW Dye-labeled secondary antibodies (LI-COR) are used. The washed membranes are scanned using Odyssey CLx imager (LI-COR). The intensity of Western blot signaling is quantitated using the Odyssey software. Primary antibodies used are: STAT5 Rabbit mAb (Cell Signaling Technology, #94205), STAT6 Rabbit mAb (Cell Signaling Technology, #5397) and GAPDH mouse monoclonal antibody (Santa Cruz Biotechnology, sc-47724).
To evaluate the degradation efficiency of degraders, immunoblotting analysis was performed. The general protocol is the following.
About 1 million cells for each data point were treated with compounds at indicated concentrations and durations. Untreated and treated cells in cell culture medium were transferred into tubes, followed by centrifugation at 3,000 rpm and 4° C. for 6 min Supernatants were removed from tubes and radioimmunoprecipitation assay (RIPA) lysis buffer supplemented with 1% protease inhibitor cocktail (Fisher Scientific cat. PI87786) and phosphatase inhibitor (Roche cat. 04906837001) were added to tubes containing the remaining cell pellets. The tubes were then left on ice for 30 min and placed in a −80° C. freezer. Subsequently they were thawed in 37° C. water, then centrifuged at 14,000 rpm for 15 min and the cell lysates transferred to new tubes. The concentration of total proteins in each tube was calculated using the Pierce BCA protein Assay kit (cat. 23225). Based on the calculated protein concentration, cell lysates containing approximately the same amount of proteins were transferred to new tubes, then distilled water and 4× Protein Sample Loading Buffer for Western Blots (LI-COR cat. 928-40004) supplemented with 20% of mercaptoethanol (Sigma Aldrich cat. M6250) were added on ice. The cell lysates were then reduced and denatured at 95° C. for 5 min. From the tubes containing cell lysates an equal amount of protein samples (20-40 μg) was loaded into precast 8%, 10%, 4%-12%, or 4%-20% Tris-glycine gels (Novex) filled with Tris-glycine SDS running buffer. After the proteins were resolved, they were transferred onto Immobile-FL PVDF Membrane (Millipore Sigma cat. IPFL00010), using Mini Trans-Blot Electrophoretic Transfer Cell (Bio-Rad 1703930). The membranes were blocked with Intercept Blocking Buffer (LI-COR cat. 927-70001) in LI-COR Western Blot boxes for 1 h at rt. The membranes were washed with 1× Tris-buffered saline-Tween-20 (TBST, 1× solution was made from 20×TBST solution, ThermoFisher Scientific cat. 28360) for 5 min 4 times. The membranes were incubated overnight at 4° C. in Intercept Blocking Buffer supplemented with primary antibodies (normally antibody:buffer 1:1000) and Tween-20. The membranes were washed with TBST for 5 min 4 times and were incubated with Intercept Blocking Buffer supplemented with IRDye 800CE Secondary Antibodies, IRDye 680RD Secondary Antibodies (LI-COR biosciences), Tween-20, and 10% SDS solution, for 1 h at rt. The membranes were then washed with TBST for 5 min 4 times and rinsed with deionized water before drying and scanning with Odyssey Dlx Amazing System (LI-COR). The immunoblots were finally quantified by the software.

[1] = MOLM-16 cells, numeric bound, read-out: DC50 S5 MOLM-16
[2] = KU-812 cells, read-out: DC50 S5 KU-812
[3] = SKNO1 cells, read-out: DC50 S5 SKNO1

Structure (SMILES) | DC50 [1] [nM] | DC50 [2] [nM] | DC50 [3] [nM]
CC(C)(C)[C@H](NC(=O)c1cc2cc(C(F)(F)P(=O)(O)O)ccc2s1)C(=O)N1C[C@@H](OCc2ccccc2)C[C@H]1C(=O)N(CCC(=O)NCCCCC#Cc1cccc2c1CN(C1CCC(=O)NC1=O)C2=O)c1ccc(Br)cc1 (stereo partly drawn) [Compound 624, ((2-(((2S)-1-((2S,4S)-4-(benzyloxy)-2-((4-bromophenyl)(3-((6-(2-(2,6-dioxopiperidin-3-yl)-1-oxoisoindolin-4-yl)hex-5-yn-1-yl)amino)-3-oxopropyl)carbamoyl)pyrrolidin-1-yl)-3,3-dimethyl-1-oxobutan-2-yl)carbamoyl)benzo[b]thiophen-5-yl)difluoromethyl)phosphonic acid] | > 300 |  | 
CCN1CC[C@H]2CC[C@@H](C(=O)N(CCC(=O)NCC#Cc3cccc4c3CN(C3CCC(=O)NC3=O)C4=O)c3ccc(Br)cc3)N2C(=O)[C@@H](NC(=O)c2cc3cc(C(F)(F)P(=O)(O)O)ccc3s2)C1 (stereo partly drawn) [Compound 625, ((2-(((5S,8S,10aR)-8-((4-bromophenyl)(3-((3-(2-(2,6-dioxopiperidin-3-yl)-1-oxoisoindolin-4-yl)prop-2-yn-1-yl)amino)-3-oxopropyl)carbamoyl)-3-ethyl-6-oxodecahydropyrrolo[1,2-a][1,5]diazocin-5-yl)carbamoyl)benzo[b]thiophen-5-yl)difluoromethyl)phosphonic acid] | > 300 |  | 
CCN1CC[C@H]2CC[C@@H](C(=O)N(CCC(=O)N3CCC(Nc4cccc5c4CN(C4CCC(=O)NC4=O)C5=O)CC3)c3ccc(Br)cc3)N2C(=O)[C@@H](NC(=O)c2cc3cc(C(F)(F)P(=O)(O)O)ccc3s2)C1 (stereo partly drawn) [Compound 631, ((2-(((5S,8S,10aR)-8-((4-bromophenyl)(3-(4-((2-(2,6-dioxopiperidin-3-yl)-1-oxoisoindolin-4-yl)amino)piperidin-1-yl)-3-oxopropyl)carbamoyl)-3-ethyl-6-oxodecahydropyrrolo[1,2-a][1,5]diazocin-5-yl)carbamoyl)benzo[b]thiophen-5-yl)difluoromethyl)phosphonic acid] | > 300 |  | 
CC(C)(C)[C@H](NC(=O)c1cc2cc(C(F)(F)P(=O)(O)O)ccc2s1)C(=O)N1CCC[C@H]1C(=O)N(CCC(=O)NCCCC#Cc1cccc2c1CN(C1CCC(=O)NC1=O)C2=O)c1ccccc1 (stereo partly drawn) [Compound 633, ((2-(((2S)-1-((2S)-2-((3-((5-(2-(2,6-dioxopiperidin-3-yl)-1-oxoisoindolin-4-yl)pent-4-yn-1-yl)amino)-3-oxopropyl)(phenyl)carbamoyl)pyrrolidin-1-yl)-3,3-dimethyl-1-oxobutan-2-yl)carbamoyl)benzo[b]thiophen-5-yl)difluoromethyl)phosphonic acid] | > 300 | > 10000 | 1000 to 10000
CC(C)(C)[C@H](NC(=O)c1cc2cc(C(F)(F)P(=O)(O)O)ccc2s1)C(=O)N1C[C@H](OCc2ccccc2)C[C@H]1C(=O)N(CCC(=O)N1CCC(C#Cc2cccc3c2CN(C2CCC(=O)NC2=O)C3=O)CC1)c1ccc(Br)cc1 (stereo partly drawn) [Compound 621, ((2-(((2S)-1-((2S,4R)-4-(benzyloxy)-2-((4-bromophenyl)(3-(4-((2-(2,6-dioxopiperidin-3-yl)-1-oxoisoindolin-4-yl)ethynyl)piperidin-1-yl)-3-oxopropyl)carbamoyl)pyrrolidin-1-yl)-3,3-dimethyl-1-oxobutan-2-yl)carbamoyl)benzo[b]thiophen-5-yl)difluoromethyl)phosphonic acid] | > 300 |  | 
CCN1CC[C@H]2CC[C@@H](C(=O)N(CCC(=O)N3CCC(C#Cc4cccc5c4CN(C4CCC(=O)NC4=O)C5=O)CC3)c3ccc(Br)cc3)N2C(=O)[C@@H](NC(=O)c2cc3cc(C(F)(F)P(=O)(O)O)ccc3s2)C1 (stereo partly drawn) [Compound 630, ((2-(((5S,8S,10aR)-8-((4-bromophenyl)(3-(4-((2-(2,6-dioxopiperidin-3-yl)-1-oxoisoindolin-4-yl)ethynyl)piperidin-1-yl)-3-oxopropyl)carbamoyl)-3-ethyl-6-oxodecahydropyrrolo[1,2-a][1,5]diazocin-5-yl)carbamoyl)benzo[b]thiophen-5-yl)difluoromethyl)phosphonic acid] | > 300 |  | 
CCN1CC[C@H]2CC[C@@H](C(=O)N(CCC(=O)NCCC#Cc3cccc4c3CN(C3CCC(=O)NC3=O)C4=O)c3ccc(Br)cc3)N2C(=O)[C@@H](NC(=O)c2cc3cc(C(F)(F)P(=O)(O)O)ccc3s2)C1 (stereo partly drawn) [Compound 626, ((2-(((5S,8S,10aR)-8-((4-bromophenyl)(3-((4-(2-(2,6-dioxopiperidin-3-yl)-1-oxoisoindolin-4-yl)but-3-yn-1-yl)amino)-3-oxopropyl)carbamoyl)-3-ethyl-6-oxodecahydropyrrolo[1,2-a][1,5]diazocin-5-yl)carbamoyl)benzo[b]thiophen-5-yl)difluoromethyl)phosphonic acid] | > 300 |  | 
CC(C)(C)[C@H](NC(=O)c1cc2cc(C(F)(F)P(=O)(O)O)ccc2s1)C(=O)N1CCC[C@H]1C(=O)N(CCC(=O)NCCCC#Cc1cccc2c1CN(C1CCC(=O)NC1=O)C2=O)c1ccc(C#N)cc1 (stereo partly drawn) [Compound 642, ((2-(((2S)-1-((2S)-2-((4-cyanophenyl)(3-((5-(2-(2,6-dioxopiperidin-3-yl)-1-oxoisoindolin-4-yl)pent-4-yn-1-yl)amino)-3-oxopropyl)carbamoyl)pyrrolidin-1-yl)-3,3-dimethyl-1-oxobutan-2-yl)carbamoyl)benzo[b]thiophen-5-yl)difluoromethyl)phosphonic acid] | > 300 |  | > 10000
Cc1ccc(N(CCC(=O)NCCCC#Cc2cccc3c2CN(C2CCC(=O)NC2=O)C3=O)C(=O)[C@@H]2CCCN2C(=O)[C@@H](NC(=O)c2cc3cc(C(F)(F)P(=O)(O)O)ccc3s2)C(C)(C)C)cc1 (stereo partly drawn) [Compound 646, ((2-(((2S)-1-((2S)-2-((3-((5-(2-(2,6-dioxopiperidin-3-yl)-1-oxoisoindolin-4-yl)pent-4-yn-1-yl)amino)-3-oxopropyl)(p-tolyl)carbamoyl)pyrrolidin-1-yl)-3,3-dimethyl-1-oxobutan-2-yl)carbamoyl)benzo[b]thiophen-5-yl)difluoromethyl)phosphonic acid] | > 300 |  | 100 to 1000
CC(C)(C)[C@H](NC(=O)c1cc2cc(C(F)(F)P(=O)(O)O)ccc2s1)C(=O)N1CCC[C@H]1C(=O)N(CCC(=O)NCCCC#Cc1cccc2c1CN(C1CCC(=O)NC1=O)C2=O)c1ccc(F)cc1 (stereo partly drawn) [Compound 634, ((2-(((2S)-1-((2S)-2-((3-((5-(2-(2,6-dioxopiperidin-3-yl)-1-oxoisoindolin-4-yl)pent-4-yn-1-yl)amino)-3-oxopropyl)(4-fluorophenyl)carbamoyl)pyrrolidin-1-yl)-3,3-dimethyl-1-oxobutan-2-yl)carbamoyl)benzo[b]thiophen-5-yl)difluoromethyl)phosphonic acid] | > 300 |  | > 10000
CC(C)(C)[C@H](NC(=O)c1cc2cc(C(F)(F)P(=O)(O)O)ccc2s1)C(=O)N1CCC[C@H]1C(=O)N(CCC(=O)N1CCC(Nc2cccc3c2CN(C2CCC(=O)NC2=O)C3=O)CC1)c1ccc(Br)cc1 (stereo partly drawn) [Compound 615, ((2-(((2S)-1-((2S)-2-((4-bromophenyl)(3-(4-((2-(2,6-dioxopiperidin-3-yl)-1-oxoisoindolin-4-yl)amino)piperidin-1-yl)-3-oxopropyl)carbamoyl)pyrrolidin-1-yl)-3,3-dimethyl-1-oxobutan-2-yl)carbamoyl)benzo[b]thiophen-5-yl)difluoromethyl)phosphonic acid] | > 300 | > 10000 | 
